In patent US11724980B2, “Quinones having high capacity retention for use as electrolytes in aqueous redox flow batteries” (President and Fellows of Harvard College, priority 2018, dated 2023):
Where “and” joins values, the source holds several entries; their conditions need not be identical. Equal values may be shown once.

Assay: Cyclic voltammetry on glassy carbon electrode
Type: physicochemical
Procedure: Glassy carbon was used as the working electrode for all three-electrode CV tests. RDE experiments were conducted using a Pine Instruments Modulated Speed Rotator AFMSRCE equipped with a 5 mm diameter glassy carbon working electrode, a Ag/AgCl reference electrode (BASi, pre-soaked in 3 M NaCl solution), and a graphite counter electrode. The electrode was rotated at a specific speed while the voltage was linearly swept from −0.4 to −0.11 V vs. Ag/AgCl (FIG. 4A). […].
A second CV experiment was performed in which 2,6-DBEAQ was dissolved in pH 14 KOH solution at a concentration of 2 mM. CV measurements were plotted in FIG. 4C. The standard equilibrium potential was determined to be −0.49 V vs. SHE. The separation between the peaks in the CV curves was 42 mV, indicating fairly rapid and reversible electrochemical reactions at the surface of the electrodes.

Compound: O=C([O-])CCCOc1ccc2c(c1)C(=O)c1ccc(OCCCC(=O)[O-])cc1C2=O.[K+].[K+] [2,6-DBEAQ, 4,4′-((9,10-anthraquinone-2,6-diyl)dioxy)dibutyric acid]
- redox potential higher than that of 2,6-DHAQ: ~200 mV
- pH above which the potential is pH-independent (Pourbaix diagram): 11.5 and ~11.5
- Pourbaix diagram slope (fit to data below pH 12): −35 mV/pH
- separation between the peaks in the CV curves (pH 14 KOH, 2 mM): 42 mV
- standard equilibrium potential (pH 14 KOH, 2 mM): −0.49 V vs. SHE
